Laboratory results: article PMC2784364, “VX-166: a novel potent small molecule caspase inhibitor as a potential therapy for sepsis” (Critical Care, 2009)
Where two headings read alike, the source gives them in different places.

Legend:
CD-1 mice = assay: Endotoxic shock in the mouse (LPS 20 mg/kg iv), survival; type: in vivo
Description: Endotoxic shock studies were approved by the Vertex Pharmaceuticals Institutional Animal Care and Use Committee. Adult male CD-1 mice (weighing 30 to 32 g; Charles River Laboratories, Wilmington, MA, USA) were administered LPS (from E. coli serotype 0111:B4, Sigma-Aldrich, St. Louis, MO, USA) at 20 mg/kg iv and survival was monitored for 96 hours (n = 28 per group). VX-166 or vehicle (10% propylene glycol: 90% sodium phosphate buffer pH 8) were administered by repeat iv bolus at 0 hours (co-injection with LPS), 4, 8 and 12 hours post-LPS. VX-166 was administered at 1, 3, 10 or 30 mg/kg.

granzyme B = target: T1, granzyme B (Homo sapiens, UniProt P10144); assay: Granzyme B counter-screen; type: biochemical; conditions: at 50 μM
T1 construct: purchased Merck Biosciences Ltd. (Nottingham, UK)
Description: Active recombinant caspase-1, -3, -4, -7 and -8 were prepared as described previously. Caspase-2 was purchased from Biomol (Exeter, UK), caspase-6 from BD Biosciences (Oxford, UK), caspase-9 from Europa Bioproducts Ltd. (Cambridge, UK) and caspase-10 from Chemicon International Inc. (Harrow, UK). Cathepsin B and granzyme B were purchased from Merck Biosciences Ltd. (Nottingham, UK). Fluorogenic protease substrates were purchased from Bachem Ltd. (St. Helens, UK). All reactions were carried out at 37°C using a Molecular Devices (Wokingham, UK) Gemini plate-reader at 460 nm (excitation wavelength of 390 nm). Caspase inhibition assays were conducted, with minor modifications, as described by Margolin and colleagues. Irreversible kinetics were analysed by calculations of second-order inactivation rate constants (k) using GraphPad (La Jolla, CA, USA) Prism 4.0 software. A larger number for an inactivation rate constant indicates a greater degree of inactivation. To determine the inhibitory effect on cathepsin B, 4.25 nM of the enzyme were added to 250 μM z-RR-AMC in 10 mM 2-morpholino-ethanesulfonic acid pH 6.0, 1 mM DTT, 1 mM EDTA and 0.03% Brij35 in the presence or absence of VX-166 and the reaction monitored continuously over 15 minutes. Granzyme B was assayed, with minor modifications, as described by Thornberry and colleagues. […]

caspase-8 = target: T2, caspase-8 (Homo sapiens, UniProt Q14790); assay: Caspase inhibition assay, second-order inactivation rate; type: biochemical; conditions: recombinant caspase-8, 37°C, n = 4; read-out: Second order inactivation rate constant K
T2 construct: Active recombinant caspase-1, -3, -4, -7 and -8 were prepared as described previously; made in house
Description: (§1) Active recombinant caspase-1, -3, -4, -7 and -8 were prepared as described previously. Caspase-2 was purchased from Biomol (Exeter, UK), caspase-6 from BD Biosciences (Oxford, UK), caspase-9 from Europa Bioproducts Ltd. (Cambridge, UK) and caspase-10 from Chemicon International Inc. (Harrow, UK). Cathepsin B and granzyme B were purchased from Merck Biosciences Ltd. (Nottingham, UK). Fluorogenic protease substrates were purchased from Bachem Ltd. (St. Helens, UK). All reactions were carried out at 37°C using a Molecular Devices (Wokingham, UK) Gemini plate-reader at 460 nm (excitation wavelength of 390 nm). Caspase inhibition assays were conducted, with minor modifications, as described by Margolin and colleagues. Irreversible kinetics were analysed by calculations of second-order inactivation rate constants (k) using GraphPad (La Jolla, CA, USA) Prism 4.0 software. A larger number for an inactivation rate constant indicates a greater degree of inactivation. To determine the inhibitory effect on cathepsin B, 4.25 nM of the enzyme were added to 250 μM z-RR-AMC in 10 mM 2-morpholino-ethanesulfonic acid pH 6.0, 1 mM DTT, 1 mM EDTA and 0.03% Brij35 in the presence or absence of VX-166 and the reaction monitored continuously over 15 minutes. Granzyme B was assayed, with minor modifications, as described by Thornberry and colleagues. Additional counterscreening against a panel of 83 additional enzymes, ion channels and receptors was carried out at MDS Pharma Services (Bothell, WA, USA).

caspase-6 = target: T3, caspase-6 (Homo sapiens, UniProt P55212); assay: as above; type: biochemical; conditions: recombinant caspase-6, 37°C, n = 4; read-out: Second order inactivation rate constant K
T3 construct: purchased BD Biosciences (Oxford, UK)
Description: as §1

caspase-1 = target: T4, caspase-1 (Homo sapiens, UniProt P29466); assay: as above; type: biochemical; conditions: caspase-1, text; read-out: second order inactivation rate constant (k)
T4 construct: Active recombinant caspase-1, -3, -4, -7 and -8 were prepared as described previously; made in house
Description: as §1

caspase-9 = target: T5, caspase-9 (Homo sapiens, UniProt P55211); assay: as above; type: biochemical; conditions: recombinant caspase-9, 37°C, n = 4; read-out: Second order inactivation rate constant K
T5 construct: purchased Europa Bioproducts Ltd. (Cambridge, UK)
Description: as §1

caspase-7 = target: T6, caspase-7 (Homo sapiens, UniProt P55210); assay: as above; type: biochemical; conditions: recombinant caspase-7, 37°C, n = 4; read-out: Second order inactivation rate constant K
T6 construct: Active recombinant caspase-1, -3, -4, -7 and -8 were prepared as described previously; made in house
Description: as §1

caspase-4 = target: T7, caspase-4 (Homo sapiens, UniProt P49662); assay: as above; type: biochemical; conditions: recombinant caspase-4, 37°C, n = 4; read-out: Second order inactivation rate constant K
T7 construct: Active recombinant caspase-1, -3, -4, -7 and -8 were prepared as described previously; made in house
Description: as §1

caspase-3 = target: T8, caspase-3 (Homo sapiens, UniProt P42574); assay: as above; type: biochemical
T8 construct: Active recombinant caspase-1, -3, -4, -7 and -8 were prepared as described previously; made in house
Description: as §1

caspase-2 = target: T9, caspase-2 (Homo sapiens, UniProt P42575); assay: as above; type: biochemical
T9 construct: purchased Biomol (Exeter, UK)
Description: as §1

caspase-10 = target: T10, caspase-10 (Homo sapiens, UniProt Q92851); assay: as above; type: biochemical; conditions: recombinant caspase-10, 37°C, n = 4; read-out: Second order inactivation rate constant K
T10 construct: purchased Chemicon International Inc. (Harrow, UK)
Description: as §1

[1] = read-out: Second order inactivation rate constant K

T8 sequence (P42574 29-175 limits assumed): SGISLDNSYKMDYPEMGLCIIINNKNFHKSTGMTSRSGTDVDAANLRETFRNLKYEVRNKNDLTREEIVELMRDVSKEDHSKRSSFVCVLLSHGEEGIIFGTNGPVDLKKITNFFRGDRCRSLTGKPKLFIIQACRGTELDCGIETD
T8 sequence (P42574 176-277 limits assumed): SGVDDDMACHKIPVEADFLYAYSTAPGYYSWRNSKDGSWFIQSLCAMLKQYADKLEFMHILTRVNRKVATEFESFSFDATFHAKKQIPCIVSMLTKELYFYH
T9 sequence (P42575 whole entry): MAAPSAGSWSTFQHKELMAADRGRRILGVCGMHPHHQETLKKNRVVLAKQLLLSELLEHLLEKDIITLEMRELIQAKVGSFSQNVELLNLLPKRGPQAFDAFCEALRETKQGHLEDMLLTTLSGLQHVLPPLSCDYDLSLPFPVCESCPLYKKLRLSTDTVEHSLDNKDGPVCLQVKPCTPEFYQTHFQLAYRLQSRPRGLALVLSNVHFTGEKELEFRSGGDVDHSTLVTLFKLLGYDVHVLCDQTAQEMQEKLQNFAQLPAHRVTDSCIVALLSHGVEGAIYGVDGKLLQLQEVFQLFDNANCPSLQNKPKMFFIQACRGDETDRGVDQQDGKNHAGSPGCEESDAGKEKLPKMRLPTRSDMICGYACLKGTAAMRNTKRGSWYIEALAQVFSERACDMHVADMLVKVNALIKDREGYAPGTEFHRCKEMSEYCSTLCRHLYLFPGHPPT
T5 sequence (P55211 whole entry): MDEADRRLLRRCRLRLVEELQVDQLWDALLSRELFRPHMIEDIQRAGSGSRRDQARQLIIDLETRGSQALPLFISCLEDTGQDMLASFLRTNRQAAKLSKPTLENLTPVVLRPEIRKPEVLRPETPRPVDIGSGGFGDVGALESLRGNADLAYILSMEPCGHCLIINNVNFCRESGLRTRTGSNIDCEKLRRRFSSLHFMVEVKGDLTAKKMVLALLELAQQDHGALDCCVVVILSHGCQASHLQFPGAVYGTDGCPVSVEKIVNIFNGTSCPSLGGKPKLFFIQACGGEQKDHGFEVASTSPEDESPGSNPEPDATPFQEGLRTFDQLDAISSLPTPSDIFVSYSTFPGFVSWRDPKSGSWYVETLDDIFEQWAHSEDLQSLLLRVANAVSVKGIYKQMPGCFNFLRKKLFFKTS
T2 sequence (Q14790 217-374 limits assumed): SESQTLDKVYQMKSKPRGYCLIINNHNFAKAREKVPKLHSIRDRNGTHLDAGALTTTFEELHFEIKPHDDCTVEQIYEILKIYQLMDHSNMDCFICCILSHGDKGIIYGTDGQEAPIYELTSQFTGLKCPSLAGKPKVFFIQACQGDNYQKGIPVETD
T2 sequence (Q14790 385-479 limits assumed): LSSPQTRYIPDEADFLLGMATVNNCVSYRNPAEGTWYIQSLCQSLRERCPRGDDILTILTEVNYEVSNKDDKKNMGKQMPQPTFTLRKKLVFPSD
T1 sequence (P10144 21-247, species assumed): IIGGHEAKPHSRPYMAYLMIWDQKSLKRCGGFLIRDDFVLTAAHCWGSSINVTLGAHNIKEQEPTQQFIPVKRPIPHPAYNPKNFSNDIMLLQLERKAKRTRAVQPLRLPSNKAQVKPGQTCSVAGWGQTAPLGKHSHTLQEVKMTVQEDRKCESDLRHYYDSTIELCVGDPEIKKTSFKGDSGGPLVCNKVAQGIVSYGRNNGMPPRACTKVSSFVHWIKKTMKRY
T6 sequence (P55210 24-198 limits assumed): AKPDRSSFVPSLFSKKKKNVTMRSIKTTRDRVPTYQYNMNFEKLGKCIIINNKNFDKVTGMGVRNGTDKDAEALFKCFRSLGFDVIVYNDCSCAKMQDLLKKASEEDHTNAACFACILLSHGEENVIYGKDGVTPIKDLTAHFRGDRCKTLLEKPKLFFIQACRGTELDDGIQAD
T6 sequence (P55210 207-303 limits assumed): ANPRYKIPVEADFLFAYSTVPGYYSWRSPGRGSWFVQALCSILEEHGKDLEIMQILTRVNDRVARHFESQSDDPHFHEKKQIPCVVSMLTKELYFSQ
T7 sequence (P49662 81-270 limits assumed): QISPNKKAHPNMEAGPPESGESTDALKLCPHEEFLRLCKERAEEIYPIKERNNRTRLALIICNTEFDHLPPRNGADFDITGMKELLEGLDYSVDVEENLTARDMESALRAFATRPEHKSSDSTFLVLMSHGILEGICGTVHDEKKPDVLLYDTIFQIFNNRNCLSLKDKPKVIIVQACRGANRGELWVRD
T7 sequence (P49662 290-377 limits assumed): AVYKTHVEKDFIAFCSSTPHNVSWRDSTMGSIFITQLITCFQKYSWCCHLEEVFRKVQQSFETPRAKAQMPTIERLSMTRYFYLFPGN
T4 sequence (P29466 120-297 limits assumed): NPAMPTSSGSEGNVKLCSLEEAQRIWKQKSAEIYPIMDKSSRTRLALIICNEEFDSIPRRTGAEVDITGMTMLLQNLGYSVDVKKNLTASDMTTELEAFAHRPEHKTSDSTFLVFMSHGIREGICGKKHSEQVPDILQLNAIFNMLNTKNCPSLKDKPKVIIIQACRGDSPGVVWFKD
T4 sequence (P29466 317-404 limits assumed): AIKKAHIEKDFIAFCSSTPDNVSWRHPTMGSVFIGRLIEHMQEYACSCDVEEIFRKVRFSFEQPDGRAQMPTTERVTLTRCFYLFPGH
T10 sequence (Q92851 220-521): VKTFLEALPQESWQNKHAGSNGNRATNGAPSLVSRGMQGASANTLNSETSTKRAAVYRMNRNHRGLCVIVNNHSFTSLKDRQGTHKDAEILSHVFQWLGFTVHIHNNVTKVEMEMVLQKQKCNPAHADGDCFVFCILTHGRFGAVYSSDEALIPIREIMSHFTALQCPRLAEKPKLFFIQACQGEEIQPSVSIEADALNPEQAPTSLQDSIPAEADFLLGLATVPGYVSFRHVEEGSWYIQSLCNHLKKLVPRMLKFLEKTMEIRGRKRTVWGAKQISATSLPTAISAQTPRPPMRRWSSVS
T3 sequence (P55212 24-293): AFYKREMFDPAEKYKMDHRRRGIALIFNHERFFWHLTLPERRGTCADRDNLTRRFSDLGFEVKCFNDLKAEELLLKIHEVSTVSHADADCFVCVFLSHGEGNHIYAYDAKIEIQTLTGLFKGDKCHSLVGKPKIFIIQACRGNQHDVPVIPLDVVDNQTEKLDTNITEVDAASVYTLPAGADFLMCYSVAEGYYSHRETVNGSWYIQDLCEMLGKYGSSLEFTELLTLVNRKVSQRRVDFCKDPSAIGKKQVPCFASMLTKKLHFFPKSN

CCC(C(=O)NC(CC(=O)O)C(=O)COc1c(F)c(F)cc(F)c1F)n1cccc(NC(=O)OC)c1=O (stereo not drawn) [VX-166]
survival rate at 96 hours compared with vehicle control (CD-1 mice; LPS 20 mg/kg iv, 30 mg/kg iv at 0, 4, 8, 12 hours): more than doubled | survival over 96 hours (CD-1 mice; LPS 20 mg/kg iv, 1, 3, 10 or 30 mg/kg repeat iv bolus at 0, 4, 8 and 12 hours post-LPS, vs vehicle): significantly improved survival in a dose-dependent fashion | survival compared with vehicle control, second study (CD-1 mice; different batch of LPS, 30 mg/kg iv at 0, 4, 8, 12 hours, P < 0.0001): substantially improved survival | inhibitory activity against granzyme B (granzyme B): did not show any inhibitory activity | kinact/KI (caspase-8): 194000 ± 52000 M⁻¹ s⁻¹ | kinact/KI (caspase-6): 77000 ± 3000 M⁻¹ s⁻¹ | kinact/KI (caspase-1): > 1e+06 M⁻¹ s⁻¹ | kinact/KI (caspase-9): 131000 ± 21000 M⁻¹ s⁻¹ | kinact/KI (caspase-7): 526000 ± 1500 M⁻¹ s⁻¹ | kinact/KI (caspase-4): 480000 ± 32000 M⁻¹ s⁻¹ | kinact/KI (caspase-3; caspase-3, text, read-out: second order inactivation rate constant (k)): > 1e+06 M⁻¹ s⁻¹ | kinact/KI (caspase-3; [1]): 1.17e+06 ± 183000 M⁻¹ s⁻¹ | kinact/KI (caspase-2; caspase-2, text, read-out: second order inactivation rate constant (k)): 6000 M⁻¹ s⁻¹ | kinact/KI (caspase-2; [1]): 6190 ± 510 M⁻¹ s⁻¹ | kinact/KI (caspase-10): 49000 ± 3800 M⁻¹ s⁻¹
